Measurements taken from the OligoGym collection.
Bases are written 5' to 3'; sugars and linkages follow in the same order, as letters with counts (s phosphorothioate, o phosphodiester; PS: all linkages phosphorothioate). The collection does not say whether C is 5-methylated. l = locked nucleic acid (LNA); d = 2'-deoxy (DNA)

The sequences below were run against Tau (assay: rat primary cortical neurons, FLIPR, 25 uM ASO).

| Sequence | calcium oscillation score |
| --- | --- |
| CTTAATTTCACCCTCA (sugars l3 d10 l3, PS) | 40.3 % of control |
| CTTACAACCAACACTGA (sugars l3 d10 l4, PS) | 49.7 % of control |
| CTTACACACCACACACACT (sugars l1 d16 l2, PS) | 100 % of control |
| CTTACACACCACACACACTC (sugars l1 d17 l2, PS) | 88.5 % of control |
| CTTACACATAGCTTCT (sugars l4 d8 l4, PS) | 47.1 % of control |
| CTTACCATCCTATCTTC (sugars l3 d11 l3, PS) | 87 % of control |
| CTTACTGATCATAATC (sugars l4 d8 l4, PS) | 56.4 % of control |
| CTTACTGATCATAATCC (sugars l4 d9 l4, PS) | 85.1 % of control |
| CTTACTTTCTACTCAATTCC (sugars l2 d16 l2, PS) | 60.6 % of control |
| CTTAGCATCAGAGGTTTCAG (sugars l3 d14 l3, PS) | 7.41 % of control |
| CTTAGTCATCTTCCCTC (sugars l2 d13 l2, PS) | 92.4 % of control |
| CTTAGTCATCTTCCCTCA (sugars l2 d14 l2, PS) | 93.8 % of control |
| CTTATTAATTATCTGC (sugars l4 d8 l4, PS) | 33.9 % of control |
| CTTATTGCTTTCCAATTC (sugars l2 d12 l4, PS) | 83.6 % of control |
| CTTCAGGTCTGGCATGGGCA (sugars l3 d14 l3, PS) | 0 % of control |
| CTTCAGTCCTAATCCT (sugars l3 d10 l3, PS) | 95.8 % of control |
| CTTCATTCTTGCCCAA (sugars l3 d10 l3, PS) | 33.3 % of control |
| CTTCCAAGACTTCTCC (sugars l4 d10 l2, PS) | 77.2 % of control |
| CTTCCAGTCCCGTCTT (sugars l3 d10 l3, PS) | 0 % of control |
| CTTCCATCACTTCGAACTCC (sugars l3 d14 l3, PS) | 27.1 % of control |
| CTTCTAATTTAGTCACC (sugars l3 d10 l4, PS) | 54.6 % of control |
| CTTCTAGTTATACAGTTGGC (sugars l3 d14 l3, PS) | 40.5 % of control |
| CTTCTATTACTTGCAAT (sugars l4 d9 l4, PS) | 69 % of control |
| CTTCTCAGCCACTGTT (sugars l3 d10 l3, PS) | 67.9 % of control |
| CTTCTCCAGTATTTCTTC (sugars l2 d13 l3, PS) | 69.4 % of control |
| CTTCTGTCACTTATTTA (sugars l4 d9 l4, PS) | 46.9 % of control |
| CTTGAAGTCAAGCTTCTCAG (sugars l3 d14 l3, PS) | 33.2 % of control |

| Sequence | calcium oscillation score |
| --- | --- |
| CTTGGCTTTGGCGTT (sugars l3 d9 l3, PS) | 82.4 % of control |
| CTTGGCTTTGGCGTTC (sugars l3 d10 l3, PS) | 2.61 % of control |
| CTTGGCTTTTTTGTCATCGC (sugars l3 d14 l3, PS) | 23.3 % of control |
| CTTGGGTGGAGTACGG (sugars l3 d10 l3, PS) | 0 % of control |
| CTTGGGTGGAGTACGGACCA (sugars l3 d14 l3, PS) | 0 % of control |
| CTTGTGATGCAGGA (sugars l3 d8 l3, PS) | 70.5 % of control |
| CTTGTGATGCAGGAG (sugars l3 d9 l3, PS) | 87.8 % of control |
| CTTTAATTTAATCACTC (sugars l4 d9 l4, PS) | 17.3 % of control |
| CTTTAATTTAATCACTCA (sugars l4 d10 l4, PS) | 76.6 % of control |
| CTTTACCCATCTTAATTC (sugars l4 d11 l3, PS) | 86.1 % of control |
| CTTTACCCATCTTAATTCAT (sugars l3 d15 l2, PS) | 82.1 % of control |
| CTTTATTCCCTTAACAATAT (sugars l3 d14 l3, PS) | 74.6 % of control |
| CTTTATTTCCAAATTCAC (sugars l3 d11 l1 d1 l2, PS) | 132 % of control |
| CTTTATTTCCAAATTCAC (sugars l3 d11 l4, PS) | 112 % of control |
| CTTTATTTCCAAATTCAC (sugars l4 d10 l1 d1 l2, PS) | 5.59 % of control |
| CTTTATTTCCAAATTCAC (sugars l4 d10 l4, PS) | 110 % of control |
| CTTTATTTCCAAATTCAC (sugars l5 d9 l1 d1 l2, PS) | 119 % of control |
| CTTTATTTCCAAATTCAC (sugars l5 d9 l4, PS) | 104 % of control |
| CTTTATTTCCAAATTCAC (sugars lldlddddddddddldll, PS) | 136 % of control |
| CTTTATTTCCAAATTCACT (sugars l3 d11 l1 d1 l3, PS) | 116 % of control |
| CTTTATTTCCAAATTCACT (sugars l3 d11 l1 d2 l2, PS) | 140 % of control |
| CTTTATTTCCAAATTCACT (sugars l3 d11 l2 d1 l2, PS) | 116 % of control |
| CTTTATTTCCAAATTCACT (sugars l3 d11 l5, PS) | 121 % of control |
| CTTTATTTCCAAATTCACT (sugars l4 d10 l1 d1 l3, PS) | 106 % of control |
| CTTTATTTCCAAATTCACT (sugars l4 d10 l1 d2 l2, PS) | 125 % of control |
| CTTTATTTCCAAATTCACT (sugars l4 d10 l2 d1 l2, PS) | 93.2 % of control |
